One may read the inhibition as the drop in the measured response relative to a control, in per cent.

Test [1] concerns HeLa. In words: Inhibition of R5-tropic HIV1 envelope glycoprotein-mediated cell-cell fusion between viral envelope expressing human virus-infected HeLa ADA cells to human HeLa P5 cells at 5 uM after 16 hrs by beta-galactosidase reporter gene assay using chemiluminescence method. The format is cell-based. Particulars: Human immunodeficiency virus 1.
The subject of test [2] is HeLa. In words: Inhibition of X4-tropic HIV1 envelope glycoprotein-mediated cell-cell fusion between viral envelope expressing human virus-infected HeLa ADA cells to human HeLa P5 cells at 5 uM after 16 hrs by beta-galactosidase reporter gene assay using chemiluminescence method. The format is cell-based. Particulars: Human immunodeficiency virus 1. In general terms: In a reporter assay the amount or activity of a reporter protein is the signal.

The structures appear in SMILES notation. The source made the active and inactive calls. The calls are words filed in the database; no cut-off is given here.

On to `C=C(C=O)[C@@H]1CC[C@]2(C)CC[C@]3(C)[C@H](CC[C@@H]4[C@@]5(C)CC[C@H](OC(C)=O)C(C)(C)[C@@H]5CC[C@]43C)[C@@H]12`, for which the inhibition with HeLa [1] was 41%; in the test on HeLa [2], 6%.

As for `C=C(C)[C@@H]1CC[C@]2(C)CC[C@]3(C)[C@H](CC[C@@H]4[C@@]5(C)CC/C(=N\O)C(C)(C)[C@@H]5CC[C@]43C)[C@@H]12`, the figures for the inhibition with HeLa [1] and with HeLa [2] were 7% and 23%, respectively.

On to `C=C(C=O)[C@@H]1CC[C@]2(C)CC[C@]3(C)[C@H](CC[C@@H]4[C@@]5(C)CC[C@H](O)C(C)(C)[C@@H]5CC[C@]43C)[C@@H]12`, for which the inhibition entry with HeLa [1] and in the test on HeLa [2] was “inactive” in each case.

As to `C=C(C)[C@@H]1CC[C@]2(C)CC[C@]3(C)[C@H](CC[C@@H]4[C@@]5(C)CC[C@H](O)C(C)(C)[C@@H]5CC[C@]43C)[C@@H]12`, the inhibition result in the test with HeLa [1] and in the test with HeLa [2] was “inactive” each time.

For `C=C(C)[C@@H]1CC[C@]2(CO)CC[C@]3(C)[C@H](CC[C@@H]4[C@@]5(C)CC[C@H](O)C(C)(C)[C@@H]5CC[C@]43C)[C@@H]12`, the inhibition in the test on HeLa [1] is 17%; in the test with HeLa [2], 34%.

Take `C=C(C)[C@@H]1CC[C@]2(C)CC[C@]3(C)[C@H](CC[C@@H]4[C@@]5(C)CC[C@H](OC(C)=O)C(C)(C)[C@@H]5CC[C@]43C)[C@@H]12`: the inhibition in the test on HeLa [1] came out at 31%; with HeLa [2] it was 15%.

With `CC1(C)C=C2[C@H]3CC[C@@H]4[C@@]5(C)CC[C@H](O)C(C)(C)[C@@H]5CC[C@@]4(C)[C@]3(C)CC[C@@]2(C)CC1`, the inhibition result in the test on HeLa [1] and in the test on HeLa [2] was “inactive” throughout.

For the molecule `C=C(C)[C@@H]1CC[C@]2(C)CC[C@]3(C)[C@H](CC[C@@H]4[C@@]5(C)CCC(=O)C(C)(C)[C@@H]5CC[C@]43C)[C@@H]12`, the inhibition result with HeLa [1] and in the test with HeLa [2] was “inactive” each time.

For `CC(=O)O[C@H]1CC[C@]2(C)[C@H]3CC[C@@H]4[C@H]5[C@H]([C@@]6(C)CO6)CC[C@]5(C)CC[C@@]4(C)[C@]3(C)CC[C@H]2C1(C)C`, the inhibition with HeLa [1] amounted to 26%; in the test with HeLa [2] it was 6%.

Regarding `C=C(C=O)[C@@H]1CC[C@]2(CO)CC[C@]3(C)[C@H](CC[C@@H]4[C@@]5(C)CC[C@H](O)C(C)(C)[C@@H]5CC[C@]43C)[C@@H]12`, the results for the inhibition in the test on HeLa [1] and in the test on HeLa [2] were 26% and 10%, respectively.

Consider `CC(=O)O[C@H]1CC[C@]2(C)[C@H]3CC[C@@H]4[C@]56O[C@H]5C(C)(C)CC[C@]6(C)CC[C@@]4(C)[C@]3(C)CC[C@H]2C1(C)C`, for which the inhibition result with HeLa [1] and in the test with HeLa [2] was “inactive” each time.

Take `C=C(C=O)[C@@H]1CC[C@]2(C)CC[C@]3(C)[C@H](CC[C@@H]4[C@@]5(C)C=CC(=O)C(C)(C)[C@@H]5CC[C@]43C)[C@@H]12`: the inhibition in the test on HeLa [1] worked out at 28%; with HeLa [2], 44%.

The record behind these values is ChEMBL document CHEMBL2040731, “Synthesis and anti-HIV activity of lupane and olean-18-ene derivatives. Absolute configuration of 19,20-epoxylupanes by VCD” (J Nat Prod, 2012).
